# Results published in patent publication EP1166782A2, “Anti-retroviral pharmaceutical compositions” (Yang, Chi-Chiang, priority 2000, dated 2002).
# Where two headings read alike, the source gives them in different places.
# Legend:
# [1] = test system: macrophage-tropic (NL-43); experiment: P24 quantification (P24 EIA) in infected PBMCs, NL-43; assay type: cell-based, HIV-1; conditions: PBMC; for concentrations of the viral P24 antigen, NL43(+): (+) original concentration of compound maintained after washing; for concentrations of the viral P24 antigen, NL43(-): (-) compound removed after washing
# Experimental: (§1) PBMCs were treated with various concentrations of CAPE, MC and PEDMC provided in Example 2 and simultaneously infected with […] and macrophage and T cells dual tropic (89.6) HIV-1 isolates. The next day, the added compounds were removed by washing methods or maintained at the same concentration. Samples were divided into two groups and the upernatants of the culture medium were collected at the 3 and 7 days after infection, respectively. The use of P24 EIA Reagent Kit of Abbott Laboratory compares the concentrations of viral P24 antigen with or without the compounds tested.
# T cells-tropic (JRCSF) = experiment: P24 quantification (P24 EIA) in infected PBMCs, JRCSF; assay type: cell-based, HIV-1; conditions: PBMC; for concentrations of the viral P24 antigen, JRCSF(+): (+) original concentration of compound maintained after washing; for concentrations of the viral P24 antigen, JRCSF(-): (-) compound removed after washing
# Experimental: as §1
# [2] = test system: macrophage and T cells dual tropic (89.6); experiment: P24 quantification (P24 EIA) in infected PBMCs, 89.6; assay type: cell-based, HIV-1; conditions: PBMC; for concentrations of the viral P24 antigen, 89.6(+): (+) original concentration of compound maintained after washing; for concentrations of the viral P24 antigen, 89.6(-): (-) compound removed after washing
# Experimental: as §1
# [3] = test system: various HIV isolates (NL-43, JRCSF or 89.6); experiment: P24 quantification, summary statements over all isolates; assay type: cell-based, HIV-1
# Experimental: as §1
# [4] = test system: Peripheral Blood Mononuclear Cells (PBMC); conditions: for The numbers of dead cells in 400 cells' count / % viability: 48 hours; for The numbers of dead cells in 400 cells' count: control 9 dead cells; for % viability: viable cells versus control (391);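 on all read-outs here: trypan blue dye exclusion, cells stained and counted from quadruplicate dishes, DMSO vehicle kept under 0.5%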
# Experimental: Viability of the cells was assayed by the trypan blue dye exclusion method. […] The concentration of DMSO was adjusted to be less than 0.5%. Cells from quadruplicated dishes were washed once with Hank's Balanced Salt Solution (HBSS). According to the process, the floating dead cells will be separated from the live monolayer cells. Then the cells were stained with trypan blue and counted. The total number of viable cells in the control group was considered as 100% viability and the agent-treated cells were compared with the control group for the determination of % viability. The % viability of agent-treated cells was calculated from the total number of viable cells in the control group and in the agent-treated group.
structure (smiles),measurement,setting,value
"COC(=O)/C=C/c1ccc(O)c(O)c1 [MC, methyl caffeate]","concentrations of the viral P24 antigen, NL43(+)",[1]; 0.1 µM,1000 unit
same,"concentrations of the viral P24 antigen, NL43(-)",[1]; 0.1 µM,1000 unit
same,"concentrations of the viral P24 antigen, NL43(+)",[1]; 0.5 µM,1000 unit
same,"concentrations of the viral P24 antigen, NL43(-)",[1]; 0.5 µM,1000 unit
same,"concentrations of the viral P24 antigen, NL43(+)",[1]; 1 µM,1000 unit
same,"concentrations of the viral P24 antigen, NL43(-)",[1]; 1 µM,1000 unit
same,"concentrations of the viral P24 antigen, NL43(+)",[1]; 5 µM,1000 unit
same,"concentrations of the viral P24 antigen, NL43(-)",[1]; 5 µM,1000 unit
same,"concentrations of the viral P24 antigen, NL43(+)",[1]; 10 µM,1000 unit
same,"concentrations of the viral P24 antigen, NL43(-)",[1]; 10 µM,1000 unit
same,"concentrations of the viral P24 antigen, NL43(+)",[1]; 25 µM,220.63 unit
same,"concentrations of the viral P24 antigen, NL43(-)",[1]; 25 µM,1000 unit
same,"concentrations of the viral P24 antigen, NL43(+)",[1]; 50 µM,273.07 unit
same,"concentrations of the viral P24 antigen, NL43(-)",[1]; 50 µM,922.63 unit
same,"concentrations of the viral P24 antigen, NL43(+)",[1]; 100 µM,0 unit
same,"concentrations of the viral P24 antigen, NL43(-)",[1]; 100 µM,687.24 unit
same,"concentrations of the viral P24 antigen, NL43(+)",[1]; 200 µM,0 unit
same,"concentrations of the viral P24 antigen, NL43(-)",[1]; 200 µM,518.45 unit
same,"concentrations of the viral P24 antigen, NL43(+)",[1]; 400 µM,0 unit
same,"concentrations of the viral P24 antigen, NL43(-)",[1]; 400 µM,2.53 unit
same,"concentrations of the viral P24 antigen, JRCSF(+)",T cells-tropic (JRCSF); 0.1 µM,1000 unit
same,"concentrations of the viral P24 antigen, JRCSF(-)",T cells-tropic (JRCSF); 0.1 µM,1000 unit
same,"concentrations of the viral P24 antigen, JRCSF(+)",T cells-tropic (JRCSF); 0.5 µM,1000 unit
same,"concentrations of the viral P24 antigen, JRCSF(-)",T cells-tropic (JRCSF); 0.5 µM,1000 unit
same,"concentrations of the viral P24 antigen, JRCSF(+)",T cells-tropic (JRCSF); 1 µM,1000 unit
same,"concentrations of the viral P24 antigen, JRCSF(-)",T cells-tropic (JRCSF); 1 µM,1000 unit
same,"concentrations of the viral P24 antigen, JRCSF(+)",T cells-tropic (JRCSF); 5 µM,58.13 unit
same,"concentrations of the viral P24 antigen, JRCSF(-)",T cells-tropic (JRCSF); 5 µM,1000 unit
same,"concentrations of the viral P24 antigen, JRCSF(+)",T cells-tropic (JRCSF); 10 µM,2.53 unit
same,"concentrations of the viral P24 antigen, JRCSF(-)",T cells-tropic (JRCSF); 10 µM,828.46 unit
same,"concentrations of the viral P24 antigen, JRCSF(+)",T cells-tropic (JRCSF); 25 µM,2.33 unit
same,"concentrations of the viral P24 antigen, JRCSF(-)",T cells-tropic (JRCSF); 25 µM,786.67 unit
same,"concentrations of the viral P24 antigen, JRCSF(+)",T cells-tropic (JRCSF); 50 µM,0 unit
same,"concentrations of the viral P24 antigen, JRCSF(-)",T cells-tropic (JRCSF); 50 µM,42.64 unit
same,"concentrations of the viral P24 antigen, JRCSF(+)",T cells-tropic (JRCSF); 100 µM,0 unit
same,"concentrations of the viral P24 antigen, JRCSF(-)",T cells-tropic (JRCSF); 100 µM,0 unit
same,"concentrations of the viral P24 antigen, JRCSF(+)",T cells-tropic (JRCSF); 200 µM,0 unit
same,"concentrations of the viral P24 antigen, JRCSF(-)",T cells-tropic (JRCSF); 200 µM,0 unit
same,"concentrations of the viral P24 antigen, JRCSF(+)",T cells-tropic (JRCSF); 400 µM,0 unit
same,"concentrations of the viral P24 antigen, JRCSF(-)",T cells-tropic (JRCSF); 400 µM,0 unit
same,"concentrations of the viral P24 antigen, 89.6(+)",[2]; 0.1 µM,1000 unit
same,"concentrations of the viral P24 antigen, 89.6(-)",[2]; 0.1 µM,1000 unit
same,"concentrations of the viral P24 antigen, 89.6(+)",[2]; 0.5 µM,954.88 unit
same,"concentrations of the viral P24 antigen, 89.6(-)",[2]; 0.5 µM,1000 unit
same,"concentrations of the viral P24 antigen, 89.6(+)",[2]; 1 µM,149.67 unit
same,"concentrations of the viral P24 antigen, 89.6(-)",[2]; 1 µM,966.67 unit
same,"concentrations of the viral P24 antigen, 89.6(+)",[2]; 5 µM,66.78 unit
same,"concentrations of the viral P24 antigen, 89.6(-)",[2]; 5 µM,1000 unit
same,"concentrations of the viral P24 antigen, 89.6(+)",[2]; 10 µM,14.36 unit
same,"concentrations of the viral P24 antigen, 89.6(-)",[2]; 10 µM,624.39 unit
same,"concentrations of the viral P24 antigen, 89.6(+)",[2]; 25 µM,5.2 unit
same,"concentrations of the viral P24 antigen, 89.6(-)",[2]; 25 µM,504.42 unit
same,"concentrations of the viral P24 antigen, 89.6(+)",[2]; 50 µM,18.4 unit
same,"concentrations of the viral P24 antigen, 89.6(-)",[2]; 50 µM,286.46 unit
same,"concentrations of the viral P24 antigen, 89.6(+)",[2]; 100 µM,8.91 unit
same,"concentrations of the viral P24 antigen, 89.6(-)",[2]; 100 µM,278.43 unit
same,"concentrations of the viral P24 antigen, 89.6(+)",[2]; 200 µM,0 unit
same,"concentrations of the viral P24 antigen, 89.6(-)",[2]; 200 µM,124.97 unit
same,"concentrations of the viral P24 antigen, 89.6(+)",[2]; 400 µM,0 unit
same,"concentrations of the viral P24 antigen, 89.6(-)",[2]; 400 µM,0 unit
same,viral replications (result in words),"[3]; Figures 3-5, PBMC infected with NL-43, JRCSF or 89.6",significantly inhibited viral replications
same,inhibit viral replication,"[3]; at the concentration of 100 µM or less, various HIV isolates",100%
same,The numbers of dead cells in 400 cells' count,[4]; 0.1 µM,9
same,% viability,[4]; 0.1 µM,391/391 (100%)
same,The numbers of dead cells in 400 cells' count,[4]; 0.5 µM,7
same,% viability,[4]; 0.5 µM,393/391 (100.5%)
same,The numbers of dead cells in 400 cells' count,[4]; 1 µM,12
same,% viability,[4]; 1 µM,388/391 (99.2%)
same,The numbers of dead cells in 400 cells' count,[4]; 5 µM,9
same,% viability,[4]; 5 µM,391/391 (100%)
same,The numbers of dead cells in 400 cells' count,[4]; 10 µM,7
same,% viability,[4]; 10 µM,393/391 (100.5%)
same,The numbers of dead cells in 400 cells' count,[4]; 25 µM,11
same,% viability,[4]; 25 µM,389/391 (99.5%)
same,The numbers of dead cells in 400 cells' count,[4]; 50 µM,11
same,% viability,[4]; 50 µM,389/391 (99.5%)
same,The numbers of dead cells in 400 cells' count,[4]; 100 µM,7
same,% viability,[4]; 100 µM,393/391 (100.5%)
same,The numbers of dead cells in 400 cells' count,[4]; 200 µM,8
same,% viability,[4]; 200 µM,392/391 (100.3%)
same,The numbers of dead cells in 400 cells' count,[4]; 400 µM,7
same,% viability,[4]; 400 µM,393/391 (100.5%)
same,viabilities of PBMC under high-dose versus low-dose treatments (result in words),[4]; high dose up to 400 µM compared with 0.1-10 µM,no substantial differences
